{"source": "patent US8975406B2", "about": "“Compound useful for the treatment of degenerative and inflammatory diseases” (Galapagos N.V., priority 2011, dated 2015)", "key": {"[1]": {"target": "T1, Recombinant human JAK1 (Homo sapiens, UniProt P23458)", "T1 construct": "catalytic domain (amino acids 866-1154; catalog number PV4774); purchased Invitrogen PV4774", "T1 sequence (P23458 866-1154)": "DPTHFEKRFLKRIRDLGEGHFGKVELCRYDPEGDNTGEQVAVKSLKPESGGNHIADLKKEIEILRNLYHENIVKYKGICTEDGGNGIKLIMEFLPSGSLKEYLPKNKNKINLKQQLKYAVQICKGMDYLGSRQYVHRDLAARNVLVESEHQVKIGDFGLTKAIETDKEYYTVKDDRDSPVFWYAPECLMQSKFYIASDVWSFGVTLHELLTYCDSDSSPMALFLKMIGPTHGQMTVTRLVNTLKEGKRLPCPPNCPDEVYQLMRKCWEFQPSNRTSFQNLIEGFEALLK", "assay": "JAK1 Ulight-JAK1 peptide assay", "assay_type": "biochemical", "conditions": "Ulight-JAK1(tyr1023) peptide, 7 μM ATP", "experimental": "Recombinant human JAK1 (catalytic domain, amino acids 866-1154; catalog number PV4774) was purchased from Invitrogen. 1 ng of JAK1 was incubated with 20 nM Ulight-JAK1(tyr1023) peptide (Perkin Elmer catalog number TRF0121) in kinase reaction buffer (25 mM MOPS pH6.8, 0.01% Brij-35, 5 mM MgCl2, 2 mM DTT, 7 μM ATP) with or without 4 μL containing test compound or vehicle (DMSO, 1% final concentration), in a total volume of 20 μL, in a white 384 Opti plate (Perkin Elmer, catalog number 6007290). After 60 min at room temperature, reactions were stopped by adding 20 μL/well of detection mixture (1× detection buffer (Perkin Elmer, catalog number CR97-100C), 0.5 nM Europium-anti-phosphotyrosine (PT66) (Perkin Elmer, catalog number AD0068), 10 mM EDTA). Readout is performed using the Envision with excitation at 320 nm and measuring emission at 615 nm (Perkin Elmer). Kinase activity was calculated by subtracting relative fluorescence units (RFU) obtained in the presence of a positive control inhibitor (10 μM staurosporine) from RFU obtained in the presence of vehicle. The ability of a test compound to inhibit this activity was determined as: Percentage inhibition=((RFU determined for sample with test compound present−RFU determined for sample with positive control inhibitor)divided by(RFU determined in the presence of vehicle−RFU determined for sample with positive control inhibitor))*100.\nDose dilution series were prepared for the compounds enabling the testing of dose-response effects in the JAK1 assay and the calculation of the IC50 for the compound. Each compound is routinely tested at concentration of 20 μM followed by a ⅕ serial dilution, 10 points in a final concentration of 1% DMSO. When potency of compound series increases, more dilutions are prepared and/or the top concentration are lowered (e.g. 5 μM, 1 μM). The data are expressed as the average IC50 from the assays±standard error of the mean."}, "[2]": {"target": "T2, Recombinant human TYK2 catalytic domain (Homo sapiens, UniProt P29597)", "T2 construct": "catalytic domain (amino acids 871-1187; catalog number 08-147); GST; purchased Carna Biosciences 08-147", "T2 sequence (P29597 871-1187)": "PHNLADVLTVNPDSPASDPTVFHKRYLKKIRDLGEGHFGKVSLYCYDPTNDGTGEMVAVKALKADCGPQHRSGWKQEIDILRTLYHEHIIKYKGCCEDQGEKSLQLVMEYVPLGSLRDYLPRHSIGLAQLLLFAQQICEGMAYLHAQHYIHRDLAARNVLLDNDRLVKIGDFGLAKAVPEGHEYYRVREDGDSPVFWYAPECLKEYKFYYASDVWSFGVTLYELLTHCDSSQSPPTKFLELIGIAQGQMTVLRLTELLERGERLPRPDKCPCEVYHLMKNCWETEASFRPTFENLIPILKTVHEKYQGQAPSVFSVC", "assay": "TYK2 inhibition assay", "assay_type": "biochemical", "conditions": "polyGT substrate, 33P-gamma-ATP filter assay, 0.1 μM ATP", "experimental": "Recombinant human TYK2 catalytic domain (amino acids 871-1187; catalog number 08-147) was purchased from Carna biosciences. 4 ng of TYK2 was incubated with 12.5 μg polyGT substrate (Sigma catalog number P0275) in kinase reaction buffer (25 mM Hepes pH 7.2, 50 mM NaCl, 0.5 mM EDTA, 1 mM DTT, 5 mM MnCl2, 10 mM MgCl2, 0.1% Brij-35, 0.1 μM non-radioactive ATP, 0.125 μCi ^33P-gamma-ATP (Perkin Elmer, catalog number NEG602K001MC) final concentrations) with or without 5 μL containing test compound or vehicle (DMSO, 1% final concentration), in a total volume of 25 μL, in a polypropylene 96-well plate (Greiner, V-bottom). After 90 min at 30° C., reactions were stopped by adding 25 μL/well of 150 mM phosphoric acid. All of the terminated kinase reaction was transferred to prewashed (75 mM phosphoric acid) 96 well filter plates (Perkin Elmer catalog number 6005177) using a cell harvester (Perkin Elmer). Plates were washed 6 times with 300 μL per well of a 75 mM phosphoric acid solution and the bottom of the plates was sealed. 40 μL/well of Microscint-20 was added, the top of the plates was sealed and readout was performed using the Topcount (Perkin Elmer). Kinase activity was calculated by subtracting counts per min (cpm) obtained in the presence of a positive control inhibitor (10 μM staurosporine) from cpm obtained in the presence of vehicle. The ability of a test compound to inhibit this activity was determined as: Percentage inhibition=((cpm determined for sample with test compound present−cpm determined for sample with positive control inhibitor)divided by(cpm determined in the presence of vehicle−cpm determined for sample with positive control inhibitor))*100.\nDose dilution series were prepared for the compounds enabling the testing of dose-response effects in the TYK2 assay and the calculation of the IC50 for each compound. Each compound was routinely tested at concentration of 20 μM followed by a ⅓ serial dilution, 8 points (20 μM-6.67 μM-2.22 μM-740 nM-247 nM-82 nM-27 nM-9 nM) in a final concentration of 1% DMSO. When potency of compound series increased, more dilutions were prepared and/or the top concentration was lowered (e.g. 5 μM, 1 μM)."}}}
{"smiles": "C[C@@H](c1ccc(-c2cccn3nc(NC(=O)C4CC4)cc23)cc1)N1CCN(S(C)(=O)=O)CC1", "note": "[Compound 47, (S)-N-(4-(4-(1-(4-(methylsulfonyl)piperazin-1-yl)ethyl)phenyl)pyrazolo[1,5-a]pyridin-2-yl)cyclopropanecarboxamide]", "values": [{"measurement": "IC50", "setting": "[1]", "value": "0.01 to 100", "unit": "nM"}, {"measurement": "IC50", "setting": "[2]", "value": "0.01 to 100", "unit": "nM"}]}
{"smiles": "CS(=O)(=O)N1CC[C@@H](Oc2ccc(-c3cccn4nc(NC(=O)C5CC5)cc34)cc2)C1", "note": "[Compound 49, (R)-N-(4-(4-(1-(methylsulfonyl)pyrrolidin-3-yloxy)phenyl)pyrazolo[1,5-a]pyridin-2-yl)cyclopropanecarboxamide]", "values": [{"measurement": "IC50", "setting": "[1]", "value": "0.01 to 100", "unit": "nM"}, {"measurement": "IC50", "setting": "[2]", "value": "0.01 to 100", "unit": "nM"}]}
{"smiles": "CS(=O)(=O)C1CCN(Cc2ccc(-c3cccn4nc(NC(=O)C5CC5)c(Cl)c34)cc2)CC1", "note": "[Compound 19, N-(3-chloro-4-(4-((4-(methylsulfonyl)piperidin-1-yl)methyl)phenyl)pyrazolo[1,5-a]pyridin-2-yl)cyclopropanecarboxamide]", "values": [{"measurement": "IC50", "setting": "[1]", "value": "0.01 to 100", "unit": "nM"}, {"measurement": "IC50", "setting": "[2]", "value": "101 to 500", "unit": "nM"}]}
{"smiles": "CC(=O)Nc1cc2c(-c3ccc(CN4CCN(S(C)(=O)=O)C[C@H]4C)cc3)cccn2n1", "note": "[Compound 24, (R)-N-(4-(4-((2-methyl-4-(methylsulfonyl)piperazin-1-yl)methyl)phenyl)pyrazolo[1,5-a]pyridin-2-yl)acetamide]", "values": [{"measurement": "IC50", "setting": "[1]", "value": "0.01 to 100", "unit": "nM"}, {"measurement": "IC50", "setting": "[2]", "value": "501 to 1000", "unit": "nM"}]}
{"smiles": "N#Cc1ccc(COc2ccc(-c3cccn4nc(NC(=O)C5CC5)cc34)cc2)cn1", "note": "[Compound 9, N-(4-(4-((6-cyanopyridin-3-yl)methoxy)phenyl)pyrazolo[1,5-a]pyridin-2-yl)cyclopropanecarboxamide]", "values": [{"measurement": "IC50", "setting": "[1]", "value": "0.01 to 100", "unit": "nM"}, {"measurement": "IC50", "setting": "[2]", "value": "0.01 to 100", "unit": "nM"}]}
{"smiles": "O=C(Nc1cc2c(-c3ccc(CN4CCS(=O)(=O)CC4)cc3)cccn2n1)C1CC1", "note": "[Compound 10, Cyclopropanecarboxylic acid {4-[4-(1,1-dioxo-thiomorpholin-4-ylmethyl)-phenyl]-pyrazolo[1,5-a]pyridin-2-yl}-amide]", "values": [{"measurement": "IC50", "setting": "[1]", "value": "0.01 to 100", "unit": "nM"}, {"measurement": "IC50", "setting": "[2]", "value": "0.01 to 100", "unit": "nM"}]}
{"smiles": "CC(c1ccc(-c2cccn3nc(NC(=O)C4CC4)cc23)cc1)N1CCN(S(C)(=O)=O)CC1", "note": "(stereo not drawn) [Compound 43, N-(4-(4-(1-(4-(methylsulfonyl)piperazin-1-yl)ethyl)phenyl)pyrazolo[1,5-a]pyridin-2-yl)cyclopropanecarboxamide]", "values": [{"measurement": "IC50", "setting": "[1]", "value": "0.01 to 100", "unit": "nM"}, {"measurement": "IC50", "setting": "[2]", "value": "0.01 to 100", "unit": "nM"}]}
{"smiles": "O=C(Nc1cc2c(-c3ccc(OCc4ccccc4)cc3)cccn2n1)C1CC1", "note": "[Compound 2, N-(4-(4-(benzyloxy)phenyl)pyrazolo[1,5-a]pyridin-2-yl)cyclopropanecarboxamide]", "values": [{"measurement": "IC50", "setting": "[1]", "value": "101 to 500", "unit": "nM"}, {"measurement": "IC50", "setting": "[2]", "value": "101 to 500", "unit": "nM"}]}
{"smiles": "CC(=O)Nc1cc2c(-c3ccc(CC(=O)N4CCOCC4)cc3)cccn2n1", "note": "[Compound 36, N-(4-(4-(2-morpholino-2-oxoethyl)phenyl)pyrazolo[1,5-a]pyridin-2-yl)acetamide]", "values": [{"measurement": "IC50", "setting": "[1]", "value": "101 to 500", "unit": "nM"}, {"measurement": "IC50", "setting": "[2]", "value": "0.01 to 100", "unit": "nM"}]}
{"smiles": "CC(=O)Nc1cc2c(-c3ccc(CC(=O)N4CC(F)(F)C4)cc3)cccn2n1", "note": "[Compound 34, N-(4-(4-(2-(3,3-difluoroazetidin-1-yl)-2-oxoethyl)phenyl)pyrazolo[1,5-a]pyridin-2-yl)acetamide]", "values": [{"measurement": "IC50", "setting": "[1]", "value": "0.01 to 100", "unit": "nM"}, {"measurement": "IC50", "setting": "[2]", "value": "0.01 to 100", "unit": "nM"}]}
{"smiles": "CC(=O)Nc1cc2c(-c3ccc(CN4CCN(CC(F)(F)F)CC4)c(F)c3)cccn2n1", "note": "[Compound 28, N-(4-(3-fluoro-4-((4-(2,2,2-trifluoroethyl)piperazin-1-yl)methyl)phenyl)pyrazolo[1,5-a]pyridin-2-yl)acetamide]", "values": [{"measurement": "IC50", "setting": "[1]", "value": "0.01 to 100", "unit": "nM"}, {"measurement": "IC50", "setting": "[2]", "value": "101 to 500", "unit": "nM"}]}
{"smiles": "COc1ccc(-c2cccn3nc(NC(=O)C4CC4)c(-c4ccccc4)c23)cc1", "note": "[Compound 7, N-(4-(4-methoxyphenyl)-3-phenylpyrazolo[1,5-a]pyridin-2-yl)cyclopropanecarboxamide]", "values": [{"measurement": "IC50", "setting": "[1]", "value": "> 1000", "unit": "nM"}, {"measurement": "IC50", "setting": "[2]", "value": "> 1000", "unit": "nM"}]}
{"smiles": "COc1ccc(-c2cccn3nc(NC(=O)C4CC4)cc23)cc1", "note": "[Compound 1, N-(4-(4-methoxyphenyl)pyrazolo[1,5-a]pyridin-2-yl)cyclopropanecarboxamide]", "values": [{"measurement": "IC50", "setting": "[1]", "value": "0.01 to 100", "unit": "nM"}, {"measurement": "IC50", "setting": "[2]", "value": "0.01 to 100", "unit": "nM"}]}
{"smiles": "CS(=O)(=O)N1CCN(Cc2ccc(-c3cccn4nc(NC(=O)C5CC5)cc34)cn2)CC1", "note": "[Compound 23, N-(4-(6-((4-(methylsulfonyl)piperazin-1-yl)methyl)pyridin-3-yl)pyrazolo[1,5-a]pyridin-2-yl)cyclopropanecarboxamide]", "values": [{"measurement": "IC50", "setting": "[1]", "value": "0.01 to 100", "unit": "nM"}, {"measurement": "IC50", "setting": "[2]", "value": "101 to 500", "unit": "nM"}]}
{"smiles": "O=C(Nc1nn2cccc(-c3ccc(CN4CCS(=O)(=O)CC4)cc3)c2c1Br)C1CC1", "note": "[Compound 12, Cyclopropanecarboxylic acid {4-[4-(1,1-dioxo-thiomorpholin-4-ylmethyl)-phenyl]-3-bromo-pyrazolo[1,5-a]pyridin-2-yl}-amide]", "values": [{"measurement": "IC50", "setting": "[1]", "value": "0.01 to 100", "unit": "nM"}, {"measurement": "IC50", "setting": "[2]", "value": "0.01 to 100", "unit": "nM"}]}
